Assay results reported in patent US12570612B2, “Substituted nitrogen heterocyclic compound and anesthetic effect thereof” (priority 2019, dated 2026).
“Also recorded” adds a separate entry of the source. Like-named read-outs stand apart in the source and are kept apart here.

Key:
Sprague-Dawley rats [1] = assay: animal or person; conditions: for Approximate therapeutic index / Minimal lethal dose: rats
Experimental: Adult male Sprague-Dawley rats (250-300 g) were selected for the experiment. […] The anesthesia effects of the compounds were assessed in rats using a LORR assay and a period >30 s was considered as an indicator of general anesthesia.

Sprague-Dawley rats [2] = assay: Pharmacological characteristics at equivalent doses (2ED50), Group A compounds; type: in vivo; set-up: Sedation duration: unit not given here; conditions: 2ED50, tail vein; for Types and incidence of adverse reactions: (animals affected/animals)
H295R cell line = assay: Adrenocortical function in vitro test: secretion of cortisol and corticosterone, Group A compounds; type: cell-based; conditions: H295 cells; for EC50: 0.1-10000 nM, HPLC-MS/MS
[3] = Homo sapiens, read-out: EC50 (Corticosterone)
[4] = Homo sapiens, read-out: EC50 (Cortisol)

Row | SMILES | ED50 (Sprague-Dawley rats [1]; Rattus norvegicus) [mg/kg] | Approximate therapeutic index (Sprague-Dawley rats [1]) | Minimal lethal dose (Sprague-Dawley rats [1]) [mg/kg] | Onset time (Sprague-Dawley rats [2]) [min] | Righting reflex duration (Sprague-Dawley rats [2]) [min] | Types and incidence of adverse reactions (Sprague-Dawley rats [2]) | Corticosterone as an indicator to determine the presence of inhibition (H295R cell line) | Cortisol as an indicator to determine the presence of inhibition (H295R cell line) | EC50 (H295R cell line; [3]) [nM] | EC50 (H295R cell line; [4]) [nM] | ED50 (Sprague-Dawley rats [1]; LORR in rats, tail vein, brackets = 95% confidence limit) | Sedation duration (Sprague-Dawley rats [2]) | EC50 (H295R cell line; read-out: EC50 (Corticosterone)) [nM] | EC50 (H295R cell line; read-out: EC50 (Cortisol)) [nM]
1 | COC(=O)C1=C(OC(=O)c2c(C(F)(F)F)cnn2[C@H](C)c2ccccc2)CCCC1 [Compound A101] | 1 to 2 | >8 | >13 | 0.39 ± 0.21 | 2.29 ± 0.65 | Red and urine(8/8), Euphoria(3/8), and Nod(2/8) | 0 | 0 | > 100 | > 100 |  |  |  | 
2 | C[C@H](c1ccccc1)n1nccc1C(=O)OCC1CC1 [Compound A3] |  | >6 | >8 | 0.13 ± 0.04 | 2.73 ± 1.08 | Red urine(8/8), Hindlimb; also recorded: rigidity (1/8) | 0 | 0 |  |  | C (C indicates that the measured ED50 is in the range of 1.00-2.00 mg/kg (excluding 1.00 mg/kg, including 2.00 mg/kg)) | 5.76 ± 0.80 | > 1000 | > 1000
3 | COC(=O)C1=C(OC(=O)c2cc(F)nn2[C@H](C)c2ccccc2)CCCC1 [Compound A54] | 1 to 2 | >9 | >12 | 0.69 ± 0.11 | 2.13 ± 1.80 | rigidity; also recorded: (3/8), GeneralTremor(1/8); also recorded: Red urine(8/8), Hindlimb | 0 | 0 | > 100 | > 100 |  |  |  | 
4 | C=CC1(OC(=O)c2ccnn2[C@H](C)c2ccccc2)COC1 [Compound A34] | 0.5 to 1 | >6 | >4 | 0.60 ± 0.32 | 1.6 ± 0.43 | Red urine(8/8), Hindlimb; also recorded: rigidity(2/8), Tremor(1/8) | 0 | 0 | > 1000 | > 1000 |  |  |  | 
5 | C=CC#CC(C)(C)OC(=O)c1ccnn1[C@H](C)c1ccccc1 [Compound A16] | 2 to 6 | >4 | >12 | 0.55 ± 0.21 | 2.55 ± 1.54 |  | 0 | 0 | > 100 | > 100 |  |  |  | 
6 | C=CC1(OC(=O)c2c(F)cnn2[C@H](C)c2ccccc2)COC1 [Compound A87] | 0.5 to 1 | >18 | >13 | 0.30 ± 0.12 | 2.21 ± 0.24 |  | 0 | 0 | > 1000 | > 1000 |  |  |  | 
7 | C=CC1(OC(=O)c2cc(F)nn2[C@H](C)c2ccccc2)COC1 [Compound A65] | 2 to 6 | >7 | >16 | 0.36 ± 0.15 | 2.48 ± 0.67 | Red and urine(8/8), Tremor(2/8) | 0 | 0 | > 100 | > 100 |  |  |  | 
8 | CO[C@H]1C[C@@H](OC(=O)c2c(F)c(F)nn2[C@H](C)c2ccccc2)C1 [Compound A94] | 0.5 to 1 | >12 | >12 | 0.33 ± 0.12 | 1.26 ± 0.40 | Red and urine(8/8), Tremor(3/8), and Four limbs and rigidity(2/8), Euphoria(1/8) | 0 | 0 | > 1000 | > 1000 |  |  |  | 
9 | CC(=O)C1=C(OC(=O)c2ccnn2[C@H](C)c2ccccc2)CCC1 [Compound A18] | 2 to 6 | >3 | >8 | 0.73 ± 0.10 | 1.19 ± 0.64 | Red urine(8/8), Hindlimb; also recorded: rigidity(5/8) | 0 | 0 | > 100 | > 100 |  |  |  | 
10 | CCOC(=O)c1c(F)cnn1[C@H](C)c1ccccc1 [Compound A70] | 1 to 2 | >6 | >12 | 0.31 ± 0.08 | 2.51 ± 1.03 |  | 0 | 0 | > 100 | > 100 |  |  |  | 
11 | CC#CC1(OC(=O)c2ccnn2[C@H](C)c2ccccc2)COC1 [Compound A10] | 2 to 6 | >5 | >12 | 0.43 ± 0.22 | 1.32 ± 0.61 | Red urine(8/8),; also recorded: Tremor(3/8), Forelimb; also recorded: clonic; also recorded: convulsion(2/8), Hindlimb; also recorded: rigidity(2/8), Facial; also recorded: muscle twitching(2/8),; also recorded: Nod(1/8) | 0 | 0 | > 1000 | > 1000 |  |  |  | 
12 | CCOC(=O)c1cc(F)nn1[C@H](C)c1ccccc1 [Compound A49] | 2 to 6 | >2 | >9 | 0.28 ± 0.04 | 2.69 ± 1.18 | Red urine(8/8), Hindlimb; also recorded: rigidity (2/8), broken-; also recorded: winded(1/8), Tremor(3/8) | 0 | 0 | > 100 | > 100 |  |  |  | 
13 | CC#CCOC(=O)c1ccnn1[C@H](C)c1ccccc1 [Compound A23] | 2 to 6 | >5 | >11 | 0.48 ± 0.14 | 2.28 ± 1.83 | Red and urine(8/8), Euphoria(6/8), and Hindlimb rigidity and (2/8), Tremor(1/8), and Convulsions(1/8) | 0 | 0 | > 100 | > 100 |  |  |  | 
14 | CC(=O)C1(OC(=O)c2ccnn2[C@H](C)c2ccccc2)COC1 [Compound A8] | 1 to 2 | >7 | >9 | 0.57 ± 0.20 | 2.70 ± 2.52 | Red urine(8/8),; also recorded: Tremor(2/8),; also recorded: Euphoria(1/8) | 0 | 0 | > 1000 | > 1000 |  |  |  | 
